Data: US20240270751A1, “Pyrazolopyridinone Compounds” (BeiGene Ltd., priority 2021, published 2024)

Experiments:
[1] = target: DGKζ (Homo sapiens (Human), UniProt Q13574); assay: Biochemical DGK IC50 assay, DGKζ ADP-Glo assay; conditions: 0.5 nM enzyme, 140 μM ATP, 80 μM DAG; read-out: DGKζ ADP-Glo assay IC50
Procedure, shortened: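 ADP formation measured by ADP-Glo luminescence, with test compounds at final 1.55–10000 nM or 23.3–150000 nM. Enzyme: purified full-length human DGKζ from Sf9 insect cells; substrate: DAG/PS micelles in 25 mM HEPES pH 7.0, 0.5 mM EDTA, octyl glucoside.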

[2] = target: DGKα (Homo sapiens (Human), UniProt P23743); assay: Biochemical DGK IC50 assay, DGKα ADP-Glo assay; conditions: 7.5 nM enzyme, 140 μM ATP, 80 μM DAG
Chain of DGKα (P23743 whole entry): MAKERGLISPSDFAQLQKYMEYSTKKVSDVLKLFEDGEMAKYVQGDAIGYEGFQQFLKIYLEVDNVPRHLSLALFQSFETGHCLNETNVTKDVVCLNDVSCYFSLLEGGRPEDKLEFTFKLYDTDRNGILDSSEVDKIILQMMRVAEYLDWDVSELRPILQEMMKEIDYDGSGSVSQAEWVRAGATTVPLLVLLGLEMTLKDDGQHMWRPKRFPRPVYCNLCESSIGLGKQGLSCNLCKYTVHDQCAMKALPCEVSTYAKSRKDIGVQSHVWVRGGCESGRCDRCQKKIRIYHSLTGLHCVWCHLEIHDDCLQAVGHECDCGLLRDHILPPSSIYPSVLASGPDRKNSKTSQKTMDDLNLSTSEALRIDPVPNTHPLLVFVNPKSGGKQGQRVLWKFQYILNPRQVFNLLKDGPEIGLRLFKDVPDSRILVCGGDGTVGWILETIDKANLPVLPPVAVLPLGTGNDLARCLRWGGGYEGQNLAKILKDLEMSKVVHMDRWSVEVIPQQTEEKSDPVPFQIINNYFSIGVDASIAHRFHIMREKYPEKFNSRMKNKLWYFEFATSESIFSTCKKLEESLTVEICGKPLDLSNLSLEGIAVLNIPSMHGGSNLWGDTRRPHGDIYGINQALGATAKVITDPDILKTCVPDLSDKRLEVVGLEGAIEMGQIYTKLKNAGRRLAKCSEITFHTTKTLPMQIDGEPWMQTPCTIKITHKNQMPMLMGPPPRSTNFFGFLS
Procedure, shortened: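 Compounds at final 1.55˜10000 nM or 23.3˜150000 nM were tested against full-length DGKα. Substrate was lipid micelles of DAG and PS resuspended in 25 mM HEPES pH 7.0 with 0.5 mM EDTA and 160 mM octyl β-D-glucopyranoside. ADP formed was detected by ADP-Glo.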

Chain of DGKζ (Q13574 other isoform, or with tags, fused parts or gaps): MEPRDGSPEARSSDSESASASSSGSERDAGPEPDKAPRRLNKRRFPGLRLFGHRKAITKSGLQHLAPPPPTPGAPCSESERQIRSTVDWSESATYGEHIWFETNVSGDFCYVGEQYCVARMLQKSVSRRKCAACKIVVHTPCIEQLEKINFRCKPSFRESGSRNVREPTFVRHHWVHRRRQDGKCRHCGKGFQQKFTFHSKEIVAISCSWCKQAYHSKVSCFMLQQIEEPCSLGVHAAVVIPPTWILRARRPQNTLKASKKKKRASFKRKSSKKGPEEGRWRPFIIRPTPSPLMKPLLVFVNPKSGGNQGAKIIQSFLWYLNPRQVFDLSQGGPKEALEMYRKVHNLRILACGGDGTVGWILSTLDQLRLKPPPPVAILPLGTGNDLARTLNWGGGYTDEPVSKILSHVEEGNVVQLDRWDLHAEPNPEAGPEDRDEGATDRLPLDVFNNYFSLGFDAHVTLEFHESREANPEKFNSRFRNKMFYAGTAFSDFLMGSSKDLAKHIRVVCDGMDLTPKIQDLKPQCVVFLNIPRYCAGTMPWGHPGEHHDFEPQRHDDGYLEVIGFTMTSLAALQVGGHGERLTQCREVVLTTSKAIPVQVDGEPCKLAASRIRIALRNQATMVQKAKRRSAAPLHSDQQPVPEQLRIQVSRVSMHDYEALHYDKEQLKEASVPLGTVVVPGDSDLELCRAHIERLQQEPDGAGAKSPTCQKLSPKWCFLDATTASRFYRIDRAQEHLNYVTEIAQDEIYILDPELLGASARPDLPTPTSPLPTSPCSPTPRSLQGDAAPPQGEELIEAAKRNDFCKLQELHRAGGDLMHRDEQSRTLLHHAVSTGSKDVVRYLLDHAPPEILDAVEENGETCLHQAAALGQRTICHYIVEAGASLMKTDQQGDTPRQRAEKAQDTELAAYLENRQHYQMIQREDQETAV

| Compound | IC50 [1] [µM] | IC50 [2] [µM] |
| --- | --- | --- |
| CC(c1ccc(F)cc1C1(O)COC1)N1C[C@H](C)N(c2cc(=O)n(C)c3cn(CC#N)nc23)C[C@H]1C (stereo partly drawn) [Compound A271, 2-(7-((2S,5R)-4-(1-(4-fluoro-2-(3-hydroxyoxetan-3-yl)phenyl)ethyl)-2,5-dimethylpiperazin-1-yl)-4-methyl-5-oxo-4,5-dihydro-2H-pyrazolo[4,3-b]pyridin-2-yl)acetonitrile] | > 10 | > 10 |
| CC(c1c(Cl)cc(F)cc1Cl)N1C[C@H](C)N(c2cc(=O)n(C)c3cn(CC#N)nc23)C[C@H]1C (stereo partly drawn) [Compound A272] | 0.411 | > 10 |
| COc1c(C(C)N2C[C@H](C)N(c3cc(=O)n(C)c4cn(CC#N)nc34)C[C@H]2C)ccc(F)c1F (stereo partly drawn) [Compound A273] | 5.55 | > 10 |
| COc1c(N2C[C@@H](C)N([C@@H](C)c3ccc4nccnc4c3)C[C@@H]2C)c2nn(CC#N)cc2n(C)c1=O [Compound A274, 2-(7-((2S,5R)-2,5-dimethyl-4-((S)-1-(quinoxalin-6-yl)ethyl)piperazin-1-yl)-6-methoxy-4-methyl-5-oxo-4,5-dihydro-2H-pyrazolo[4,3-b]pyridin-2-yl)acetonitrile] | > 10 | > 10 |
| [2H]C([2H])([2H])n1c(=O)cc(N2C[C@@H](CC)N(C(C)c3ccc(F)cc3C(F)(F)F)C[C@@H]2CC)c2nn(CC#N)cc21 (stereo partly drawn) [Compound A276, 2-(7-((2S,5R)-2,5-diethyl-4-(1-(4-fluoro-2-(trifluoromethyl)phenyl)ethyl)piperazin-1-yl)-4-(methyl-d3)-5-oxo-4,5-dihydro-2H-pyrazolo[4,3-b]pyridin-2-yl)acetonitrile] | 0.131 | > 150 |
| CC[C@H]1CN(C(C)c2ccc(Cl)cc2C(F)(F)F)[C@H](CC)CN1c1cc(=O)n(C)c2cn(CC#N)nc12 (stereo partly drawn) [Compound A277] | 2.11 | > 10 |
| CCc1cnc2ccc(C(C)N3C[C@H](C)N(c4cc(=O)n(C)c5cn(CC#N)nc45)C[C@H]3C)cc2n1 (stereo partly drawn) [Compound A278, 2-(7-((2S,5R)-4-(1-(3-ethylquinoxalin-6-yl)ethyl)-2,5-dimethylpiperazin-1-yl)-4-methyl-5-oxo-4,5-dihydro-2H-pyrazolo[4,3-b]pyridin-2-yl)acetonitrile] | 0.064 | 55.1 |
| CC(c1ccc2ncc(O)nc2c1)N1C[C@H](C)N(c2cc(=O)n(C)c3cn(CC#N)nc23)C[C@H]1C (stereo partly drawn) [Compound A279, 2-(7-((2S,5R)-4-(1-(3-hydroxyquinoxalin-6-yl)ethyl)-2,5-dimethylpiperazin-1-yl)-4-methyl-5-oxo-4,5-dihydro-2H-pyrazolo[4,3-b]pyridin-2-yl)acetonitrile] | > 10 | > 10 |
| CC(c1ccc2ncc(Cl)nc2c1)N1C[C@H](C)N(c2cc(=O)n(C)c3cn(CC#N)nc23)C[C@H]1C (stereo partly drawn) [Compound A280, 2-(7-((2S,5R)-4-(1-(3-chloroquinoxalin-6-yl)ethyl)-2,5-dimethylpiperazin-1-yl)-4-methyl-5-oxo-4,5-dihydro-2H-pyrazolo[4,3-b]pyridin-2-yl)acetonitrile] | 0.034 | 26 |
| COc1cnc2cc(C(C)N3C[C@H](C)N(c4cc(=O)n(C)c5cn(CC#N)nc45)C[C@H]3C)ccc2n1 (stereo partly drawn) [Compound A283, 2-(7-((2S,5R)-4-(1-(2-methoxyquinoxalin-6-yl)ethyl)-2,5-dimethylpiperazin-1-yl)-4-methyl-5-oxo-4,5-dihydro-2H-pyrazolo[4,3-b]pyridin-2-yl)acetonitrile] | 0.881 | 12.4 |
| CC(c1ccc2nc(O)cnc2c1)N1C[C@H](C)N(c2cc(=O)n(C)c3cn(CC#N)nc23)C[C@H]1C (stereo partly drawn) [Compound A284, 2-(7-((2S,5R)-4-(1-(2-hydroxyquinoxalin-6-yl)ethyl)-2,5-dimethylpiperazin-1-yl)-4-methyl-5-oxo-4,5-dihydro-2H-pyrazolo[4,3-b]pyridin-2-yl)acetonitrile] | > 10 | 6.48 |
| CC(c1ccc(F)cc1P(C)(C)=O)N1C[C@H](C)N(c2cc(=O)n(C)c3cn(CC#N)nc23)C[C@H]1C (stereo partly drawn) [Compound A285] | > 10 | > 10 |
| CC[C@H]1CN(C(C)c2ccc(F)c(F)c2C(F)(F)F)[C@H](CC)CN1c1cc(=O)n(C)c2cn(CC#N)nc12 (stereo partly drawn) [Compound A288] | 0.263 | 3.4 |

Next, values leading:

| IC50 [1] [µM] | IC50 [2] [µM] | Compound |
| --- | --- | --- |
| 1.13 | > 10 | CC[C@H]1CN(C(C)c2ccc(F)cc2C(N)=O)[C@H](CC)CN1c1cc(=O)n(C)c2cn(CC#N)nc12 (stereo partly drawn) [Compound A289] |
| 0.425 | 56.4 | CC[C@H]1CN(C(C)c2ccc(F)cc2C(=O)OC)[C@H](CC)CN1c1cc(=O)n(C)c2cn(CC#N)nc12 (stereo partly drawn) [Compound A290] |
| 1.91 | > 150 | CC[C@H]1CN(C(C)c2ccc(F)cc2C(=O)N(C)C)[C@H](CC)CN1c1cc(=O)n(C)c2cn(CC#N)nc12 (stereo partly drawn) [Compound A292] |
| 0.237 | 9.95 | CCC(c1ccc(F)cc1C(F)(F)F)N1C[C@H](CC)N(c2cc(=O)n(C)c3cn(CC#N)nc23)C[C@H]1CC (stereo partly drawn) [Compound A293] |
| 3.86 | 69.6 | Cc1nc2ccc(C(C)N3C[C@H](C)N(c4cc(=O)n(C)c5cn(CC#N)nc45)C[C@H]3C)cc2nc1C (stereo partly drawn) [Compound A294, 2-(7-((2S,5R)-4-(1-(2,3-dimethylquinoxalin-6-yl)ethyl)-2,5-dimethylpiperazin-1-yl)-4-methyl-5-oxo-4,5-dihydro-2H-pyrazolo[4,3-b]pyridin-2-yl)acetonitrile] |
| 0.563 | 5.69 | CCO[C@@H]1CN(c2cc(=O)n(C)c3cn(CC#N)nc23)CC[C@H]1Oc1cccc(C(F)(F)F)c1 [Compound A295, 2-(7-((3R,4R)-3-ethoxy-4-(3-(trifluoromethyl)phenoxy)piperidin-1-yl)-4-methyl-5-oxo-4,5-dihydro-2H-pyrazolo[4,3-b]pyridin-2-yl)acetonitrile] |
| 0.189 | 3.9 | CC[C@H]1CN(C(C(=O)NCCOC)c2ccc(C(F)(F)F)cc2)[C@H](CC)CN1c1cc(=O)n(C)c2cn(CC#N)nc12 (stereo partly drawn) [Compound A296, 2-((2R,5S)-4-(2-(cyanomethyl)-4-methyl-5-oxo-4,5-dihydro-2H-pyrazolo[4,3-b]pyridin-7-yl)-2,5-diethylpiperazin-1-yl)-N-(2-methoxyethyl)-2-(4-(trifluoromethyl)phenyl)acetamide] |
| > 10 | 8.18 | C[C@@H]1CN(c2cc(=O)n(C)c3cn(CC#N)nc23)[C@@H](C)CN1C(C)(C)c1ccc(F)cc1 [Compound A297, 2-(7-((2S,5R)-4-(2-(4-fluorophenyl)propan-2-yl)-2,5-dimethylpiperazin-1-yl)-4-methyl-5-oxo-4,5-dihydro-2H-pyrazolo[4,3-b]pyridin-2-yl)acetonitrile] |
| 8.91 | > 150 | Cc1cnc2ccc(N(C)C3CC(C)N(c4cc(=O)n(C)c5cn(CC#N)nc45)CC3C)cc2n1 (stereo not drawn) [Compound A298, 2-(7-(2,5-dimethyl-4-(methyl(3-methylquinoxalin-6-yl)amino)piperidin-1-yl)-4-methyl-5-oxo-4,5-dihydro-2H-pyrazolo[4,3-b]pyridin-2-yl)acetonitrile] |
| 0.131 | > 150 | C=CCn1cc2c(n1)c(N1C[C@@H](C)N([C@@H](C)c3ccc4ncc(C)nc4c3)C[C@@H]1C)cc(=O)n2C [Compound A301, 2-allyl-7-((2S,5R)-2,5-dimethyl-4-((S)-1-(3-methylquinoxalin-6-yl)ethyl)piperazin-1-yl)-4-methyl-2,4-dihydro-5H-pyrazolo[4,3-b]pyridin-5-one] |
| 0.068 | 35.4 | CC=CCn1cc2c(n1)c(N1C[C@@H](C)N([C@@H](C)c3ccc4ncc(C)nc4c3)C[C@@H]1C)cc(=O)n2C [Compound A302, 2-(but-2-en-1-yl)-7-((2S,5R)-2,5-dimethyl-4-((S)-1-(3-methylquinoxalin-6-yl)ethyl)piperazin-1-yl)-4-methyl-2,4-dihydro-5H-pyrazolo[4,3-b]pyridin-5-one] |
| 0.019 | 102 | Cc1cnc2ccc([C@H](C)N3C[C@H](C)N(c4cc(=O)n(C)c5cn(CC=C(F)F)nc45)C[C@H]3C)cc2n1 [Compound A303, 2-(3,3-difluoroallyl)-7-((2S,5R)-2,5-dimethyl-4-((S)-1-(3-methylquinoxalin-6-yl)ethyl)piperazin-1-yl)-4-methyl-2,4-dihydro-5H-pyrazolo[4,3-b]pyridin-5-one] |
| 1.19 | 1.49 | CC(c1cc2ccccc2cn1)N1C[C@H](C)N(c2cc(=O)n(C)c3cn(CC#N)nc23)C[C@H]1C (stereo partly drawn) [Compound A305] |
| 0.495 | 18.2 | Cc1ccc2ccc(C(C)N3C[C@H](C)N(c4cc(=O)n(C)c5cn(CC#N)nc45)C[C@H]3C)cc2n1 (stereo partly drawn) [Compound A306] |
| 1.75 | 2.47 | CC(c1ccc2ccc(C#N)cc2c1)N1C[C@H](C)N(c2cc(=O)n(C)c3cn(CC#N)nc23)C[C@H]1C (stereo partly drawn) [Compound A307] |
| 0.072 | 88.3 | Cc1cnc2ccc([C@H](C)N3C[C@H](C)N(c4cc(=O)[nH]c5cn(CC#N)nc45)C[C@H]3C)cc2n1 [Compound A308] |
| 0.88 | 108 | CC(c1ccc2ncc(CO)nc2c1)N1C[C@H](C)N(c2cc(=O)n(C)c3cn(CC#N)nc23)C[C@H]1C (stereo partly drawn) [Compound A309, 2-(7-((2S,5R)-4-(1-(3-(hydroxymethyl)quinoxalin-6-yl)ethyl)-2,5-dimethylpiperazin-1-yl)-4-methyl-5-oxo-4,5-dihydro-2H-pyrazolo[4,3-b]pyridin-2-yl)acetonitrile] |
